Read-outs that look alike come from different tables or passages of the source.

This is an account of results in publication PMC6445164, “Primary mono- and bis-sulfonamides obtained via regiospecific sulfochlorination of N-arylpyrazoles: inhibition profile against a panel of human carbonic anhydrases” (Journal of Enzyme Inhibition and Medicinal Chemistry, 2017).

In one data set the target is hCA I (Homo sapiens, UniProt P00915). Description: stopped-flow CA catalysed CO2 hydration assay, hCA I.
Chain of hCA I (P00915 whole entry): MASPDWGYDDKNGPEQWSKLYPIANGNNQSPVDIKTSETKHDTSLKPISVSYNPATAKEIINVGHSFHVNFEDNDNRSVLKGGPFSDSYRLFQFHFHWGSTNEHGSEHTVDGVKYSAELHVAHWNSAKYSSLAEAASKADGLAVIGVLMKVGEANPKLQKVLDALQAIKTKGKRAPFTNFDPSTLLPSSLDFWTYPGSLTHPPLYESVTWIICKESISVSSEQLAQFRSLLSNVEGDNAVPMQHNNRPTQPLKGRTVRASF
Another data set addresses hCA VII (Homo sapiens, UniProt P43166). Description: stopped-flow CA catalysed CO2 hydration assay, hCA VII.
Another data set deals with hCA II (Homo sapiens, UniProt P00918). Kind of data set: stopped-flow CA catalysed CO2 hydration assay, hCA II.
The target in a further data set is hCA IV (Homo sapiens, UniProt P22748). Kind of data set: stopped-flow CA catalysed CO2 hydration assay, hCA IV.
Chain of hCA IV (P22748 19-312): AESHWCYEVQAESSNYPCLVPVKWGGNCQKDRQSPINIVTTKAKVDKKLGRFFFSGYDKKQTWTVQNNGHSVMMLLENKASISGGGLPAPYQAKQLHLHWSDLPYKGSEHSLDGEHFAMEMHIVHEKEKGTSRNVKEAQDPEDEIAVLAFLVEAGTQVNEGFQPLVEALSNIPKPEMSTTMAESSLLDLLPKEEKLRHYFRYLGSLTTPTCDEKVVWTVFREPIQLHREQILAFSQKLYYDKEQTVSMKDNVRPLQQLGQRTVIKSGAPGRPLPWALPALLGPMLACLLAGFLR
Where [1] appears, read: within the panel hCA I, II, IV, VII.
[2] abbreviates: read-out: hCA Ki (μM) hCA I, recombinant enzyme, stopped-flow CO2 hydration, 15 min preincubation, pH 8.3.
[3] abbreviates: read-out: hCA Ki (μM) hCA VII, recombinant enzyme, stopped-flow CO2 hydration, 15 min preincubation, pH 8.3.
Setting [4] is: read-out: hCA Ki (μM) hCA II, recombinant enzyme, stopped-flow CO2 hydration, 15 min preincubation, pH 8.3.
Setting [5] is: read-out: hCA Ki (μM) hCA IV, recombinant enzyme, stopped-flow CO2 hydration, 15 min preincubation, pH 8.3.

Chain of hCA VII (P43166 whole entry): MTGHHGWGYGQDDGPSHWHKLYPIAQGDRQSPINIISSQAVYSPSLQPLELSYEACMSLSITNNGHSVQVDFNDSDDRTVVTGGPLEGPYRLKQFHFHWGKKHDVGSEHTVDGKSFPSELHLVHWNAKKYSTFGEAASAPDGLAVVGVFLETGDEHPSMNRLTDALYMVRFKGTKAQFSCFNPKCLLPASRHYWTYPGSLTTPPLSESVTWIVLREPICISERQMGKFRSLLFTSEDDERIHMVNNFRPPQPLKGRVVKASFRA
Procedure for hCA II: (§1) An applied photophysics stopped-flow instrument has been used for assaying the CA catalysed CO2 hydration activity[21]. […] The CO2 concentrations ranged from 1.7 to 17 mM for the determination of the kinetic parameters and inhibition constants. […] The uncatalysed rates were determined in the same manner and subtracted from the total observed rates. Stock solutions of inhibitor (0.1 mM) were prepared in distilled-deionized water and dilutions up to 0.005 nM were done thereafter with the assay buffer. Inhibitor and enzyme solutions were preincubated together for 15 min at room temperature prior to assay, in order to allow for the formation of the E–I complex. The inhibition constants were obtained by non-linear least-squares methods using PRISM 3 and the Cheng–Prusoff equation, as reported earlier, and represent the mean from at least three different determinations. All CA isoforms were recombinant ones obtained in-house[22–25].
Procedure for hCA IV: as §1
Procedure for hCA VII: as §1

A word on the Ki: it is the dissociation constant of the complex between target and ligand, obtained from inhibition or displacement. Broadly, the melting point is the temperature, or range, at which the solid turns liquid. Turning to `NS(=O)(=O)c1ccc(-n2cccn2)cc1` [Compound 7a, 4-(^1H-pyrazol-1-yl)benzenesulfonamide], the melting point was in the range of 323 to 325 °C. In addition, the inhibition constant (Ki) at hCA I turned out to be 4.78 µM. Moreover, the Ki on hCA VII stood at 0.8 µM. Also, the Ki at hCA II was determined as 0.072 µM. The same compound had a Ki at hCA IV greater than 10 µM.
On to `Cc1ccc(-n2cccn2)cc1S(N)(=O)=O` [Compound 7b, 2-Methyl-5-(^1H-pyrazol-1-yl)benzenesulfonamide], for which the melting point was 147 to 149 °C. The compound further yielded a Ki at hCA I greater than 10 µM. This compound had a Ki at hCA VII greater than 10 µM. The inhibition constant Ki on hCA II is greater than 10 µM. In addition, at hCA IV, the affinity, expressed as Ki, was 0.56 µM and the “hCA IV inhibition, in words” value is reported as “potent inhibition of hCA IV”. Moreover, the “isoform selectivity for hCA IV, in words” value on hCA IV (setting [1]) was “high selectivity”.
`Cc1cc(C)n(-c2ccc(S(N)(=O)=O)c(C)c2)n1` [Compound 7c, 4-(3,5-Dimethyl-^1H-pyrazol-1-yl)-2-methylbenzenesulfonamide] showed a melting point of 194 to 196 °C. The compound further gave a Ki on hCA I of 0.26 µM. The compound also registered a Ki on hCA VII of 0.04 µM. The affinity at hCA II, expressed as Ki, was 0.004 µM. The compound also yielded a Ki on hCA IV of 0.033 µM.
The like results for `Cc1cc(-n2cccn2)ccc1S(N)(=O)=O` [Compound 7d, 2-Methyl-4-(^1H-pyrazol-1-yl)benzenesulfonamide] were, in that order, 161 to 163 °C, 0.096 µM, 0.014 µM, 0.008 µM and 3.42 µM.
The like results for `Cc1cc(C)n(-c2cc(S(N)(=O)=O)ccc2C)n1` [Compound 7e, 3-(3,5-Dimethyl-^1H-pyrazol-1-yl)-4-methylbenzenesulfonamide] were, in that order, 112 to 114 °C, 4.21 µM, 0.194 µM, 0.381 µM and greater than 10 µM.
For the compound `Cc1ccc(S(N)(=O)=O)cc1-n1cccn1` [Compound 7f], the Ki on hCA I (setting [2]) was 1.23 µM; on hCA VII (setting [3]), 0.059 µM; on hCA II (setting [4]) it was 0.059 µM; on hCA IV (setting [5]) it was greater than 10 µM.
On to `COc1ccc(-n2nc(C)cc2C)cc1S(N)(=O)=O` [Compound 7g, 5-(3,5-Dimethyl-^1H-pyrazol-1-yl)-2-methoxybenzenesulfonamide], for which the melting point was in the range of 195 to 197 °C. For the same compound, the Ki at hCA I was greater than 10 µM. The same compound gave a Ki on hCA VII greater than 10 µM. In addition, the Ki at hCA II is greater than 10 µM. The same compound had a Ki at hCA IV greater than 10 µM.
As to `COc1ccc(-n2cccn2)cc1S(N)(=O)=O` [Compound 7h], the Ki at hCA I (setting [2]), at hCA VII (setting [3]), at hCA II (setting [4]) and on hCA IV (setting [5]) was greater than 10 µM throughout. For the same compound, at hCA IV, the “hCA IV inhibition, in words” value was “loss of hCA IV inhibition activity”.
The compound `COc1cc(-n2nc(C)cc2C)ccc1S(N)(=O)=O` [Compound 7i, 4-(3,5-Dimethyl-^1H-pyrazol-1-yl)-2-methoxybenzenesulfonamide] yielded a melting point of 156 to 158 °C. Besides, the Ki on hCA I came to 8.85 µM. At hCA VII, this compound came in with a Ki greater than 10 µM. Besides, the inhibition constant (Ki) on hCA II is greater than 10 µM. Moreover, the Ki on hCA IV is greater than 10 µM.
`COc1cc(-n2cccn2)ccc1S(N)(=O)=O` [Compound 7j, 2-Methoxy-4-(^1H-pyrazol-1-yl)benzenesulfonamide] came in with a melting point of 221 to 223 °C. This compound returned a Ki at hCA I greater than 10 µM. This compound returned a Ki on hCA VII of 0.387 µM. On hCA VII (setting [1]), the “isoform selectivity for hCA VII, in words” value is given as “quite notable”. The same compound returned a Ki at hCA II greater than 10 µM. This compound showed a Ki on hCA IV greater than 10 µM.
On to `COc1ccc(S(N)(=O)=O)cc1-n1nc(C)cc1C` [Compound 7k, 3-(3,5-Dimethyl-^1H-pyrazol-1-yl)-4-methoxybenzenesulfonamide], for which the melting point lay within 167 to 170 °C. Besides, on hCA I, the inhibition constant Ki was greater than 10 µM and the “hCA I inhibition, in words” value was “inactive throughout the panel”. Besides, at hCA VII, the inhibition constant Ki is greater than 10 µM and the “hCA VII inhibition, in words” value was “inactive throughout the panel”. In addition, on hCA II, the Ki was greater than 10 µM and the “hCA II inhibition, in words” value was “inactive throughout the panel”. Besides, on hCA IV, the Ki is greater than 10 µM and the “hCA IV inhibition, in words” value was “inactive throughout the panel”.
`COc1ccc(S(N)(=O)=O)cc1-n1cccn1` [Compound 7l, 4-Methoxy-3-(^1H-pyrazol-1-yl)benzenesulfonamide] yielded a melting point of 255 to 257 °C. The same compound came in with a Ki at hCA I greater than 10 µM. The inhibitory constant (Ki) at hCA VII is greater than 10 µM. In addition, affinity on hCA II was put at a Ki of 6.65 µM. Moreover, the Ki on hCA IV was greater than 10 µM.
Compound `NS(=O)(=O)c1ccc(-n2cccn2)cc1Cl` [Compound 7m, 2-Chloro-4-(^1H-pyrazol-1-yl)benzenesulfonamide] registered a melting point of 181 to 183 °C. The affinity at hCA I, expressed as Ki, was 0.066 µM. In addition, at hCA VII, the inhibitory constant (Ki) came out at 0.328 µM. At hCA II, this compound gave an inhibitory constant (Ki) of 0.085 µM. Moreover, the Ki on hCA IV was 0.086 µM.
With `NS(=O)(=O)c1ccc(Cl)c(-n2cccn2)c1` [Compound 7n, 4-Chloro-3-(^1H-pyrazol-1-yl)benzenesulfonamide], the melting point fell in the range of 204 to 206 °C. The same compound registered a Ki on hCA I of 3.83 µM. For the same compound, the Ki at hCA VII was found to be 0.009 µM. Further, the Ki on hCA II was determined as 0.001 µM. In addition, on hCA IV, the affinity corresponds to a Ki of 0.004 µM.
`Cc1cc(C)n(-c2ccc(S(N)(=O)=O)cc2)n1` [Compound 7o, 4-(3,5-Dimethyl-^1H-pyrazol-1-yl)benzenesulfonamide]: the Ki on hCA I amounted to 0.462 µM; at hCA VII it was 0.017 µM; at hCA II, 0.004 µM; on hCA IV it was 0.084 µM.
Take `Cc1nn(-c2ccc(Cl)cc2)c(C)c1S(N)(=O)=O` [Compound 8a, 1-(4-Chlorophenyl)-3,5-dimethyl-^1H-pyrazole-4-sulfonamide]: the melting point lay within 164 to 166 °C. The affinity at hCA I, expressed as Ki, was 0.76 µM. Moreover, the Ki on hCA VII was greater than 10 µM. Moreover, the affinity at hCA II, expressed as Ki, was 5.33 µM. In addition, on hCA IV, the Ki is greater than 10 µM.
Regarding `Cc1nn(-c2ccccc2)c(C)c1S(N)(=O)=O` [Compound 8b, 3,5-Dimethyl-1-phenyl-^1H-pyrazole-4-sulfonamide], the melting point was in the range of 161 to 163 °C. Further, the Ki at hCA I stood at 0.54 µM. On hCA VII, the Ki stood at 0.53 µM. Besides, the affinity on hCA II corresponds to a Ki of 0.28 µM. The Ki on hCA IV is greater than 10 µM.
The like results for `Cc1ccc(-n2nc(C)c(S(N)(=O)=O)c2C)cc1` [Compound 8c, 3,5-Dimethyl-1-(4-methylphenyl)-^1H-pyrazole-4-sulfonamide] were, in that order, 171 to 174 °C, 0.76 µM, greater than 10 µM, 0.74 µM and greater than 10 µM.
For `Cc1cccc(-n2nc(C)c(S(N)(=O)=O)c2C)c1` [Compound 8d, 3,5-Dimethyl-1-(3-methylphenyl)-^1H-pyrazole-4-sulfonamide], in that order: 174 to 176 °C, 0.27 µM, 0.94 µM, 0.24 µM and greater than 10 µM.
In turn, `Cc1ccccc1-n1nc(C)c(S(N)(=O)=O)c1C` [Compound 8e, 3,5-Dimethyl-1-(2-methylphenyl)-^1H-pyrazole-4-sulfonamide] yielded a melting point of 161 to 163 °C. Also, affinity on hCA I was put at a Ki of 0.6 µM. The Ki at hCA VII was greater than 10 µM. At hCA II, this compound came in with an inhibition constant (Ki) of 0.091 µM. The compound further gave a Ki at hCA IV greater than 10 µM.
Regarding `NS(=O)(=O)c1cnn(-c2ccc(Cl)cc2)c1` [Compound 8f, 1-(4-Chlorophenyl)-^1H-pyrazole-4-sulfonamide], the melting point fell in the range of 147 to 150 °C. The same compound came in with a Ki at hCA I of 0.19 µM. Moreover, the Ki at hCA VII is greater than 10 µM. The compound also returned a Ki at hCA II of 0.082 µM. On hCA IV, this compound gave a Ki of 7.06 µM.
`Cc1nn(-c2cccc(Cl)c2)c(C)c1S(N)(=O)=O` [Compound 8g, 1-(3-Chlorophenyl)-3,5-dimethyl-^1H-pyrazole-4-sulfonamide] registered a melting point of 182 to 184 °C. Affinity on hCA I was put at a Ki of 0.94 µM. This compound also registered a Ki at hCA VII of 0.46 µM. The same compound had a Ki at hCA II of 1.08 µM. In addition, at hCA IV, the affinity, expressed as Ki, was 9.49 µM.
Take `NS(=O)(=O)c1cnn(-c2cccc(Cl)c2)c1` [Compound 8h, (3-Chlorophenyl)-^1H-pyrazole-4-sulfonamide]: the “hCA I inhibition, in words” value on hCA I was “good hCA I, II and VII inhibition activity”. Further, the inhibition constant Ki was 0.54 µM on hCA I (setting [2]), 0.24 µM on hCA VII (setting [3]), 0.14 µM at hCA II (setting [4]) and 3.74 µM at hCA IV (setting [5]). The “hCA VII inhibition, in words” value at hCA VII is “good hCA I, II and VII inhibition activity”. Also, the “hCA II inhibition, in words” value on hCA II was “good hCA I, II and VII inhibition activity”.
Regarding `Cc1nn(-c2ccccc2Cl)c(C)c1S(N)(=O)=O` [Compound 8i, 1-(2-Chlorophenyl)-3,5-dimethyl-^1H-pyrazole-4-sulfonamide], the melting point is 204 to 206 °C. This compound showed a Ki on hCA I of 0.62 µM. Moreover, the Ki on hCA VII is greater than 10 µM. On hCA II, this compound gave a Ki of 2.64 µM. At hCA IV, the Ki came to 7.19 µM.
Regarding `Cc1ccc(-n2nc(C)c(S(N)(=O)=O)c2C)cc1S(N)(=O)=O` [Compound 9d, 3,5-Dimethyl-1-(4-methyl-3-sulfamoylphenyl)-^1H-pyrazole-4-sulfonamide], the Ki at hCA I, at hCA VII and on hCA II was greater than 10 µM throughout.
